Article PMC6691788, “Design and synthesis of phthalazine-based compounds as potent anticancer agents with potential antiangiogenic activity via VEGFR-2 inhibition” (Journal of Enzyme Inhibition and Medicinal Chemistry, 2019)
Read-outs that look alike come from different tables or passages of the source.

What was measured:
SNB-75 = experiment: NCI 60 cell panel SRB screen; format: cell-based; conditions: Homo sapiens; for GI50 / IC (TGI) / LC50 (concentration killing 50% of cells): SNB-75, 5 log dose; for LC50 (concentration killing 50% of cells): 48 h; for activity at 10 µM: SNB-75, single dose 10 μM, read-out: percent cell growth promotion
CAKI-1 = experiment: NCI 60 cell panel SRB screen; format: cell-based, human; conditions: Homo sapiens; CAKI-1, single dose 10 μM; read-out: percent cell growth promotion
OVCAR-5 = experiment: NCI 60 cell panel SRB screen; format: cell-based; conditions: Homo sapiens; for GI50 / IC (TGI) / CC50: OVCAR-5, 5 log dose; for CC50: 48 h, read-out: LC50 (the source's name); for activity at 10 µM: OVCAR-5, single dose 10 μM, read-out: percent cell growth promotion
RXF 393 = experiment: NCI 60 cell panel SRB screen; format: cell-based; conditions: Homo sapiens; for GI50 / IC (TGI) / CC50: RXF 393, 5 log dose; for CC50: 48 h, read-out: LC50 (the source's name); for activity at 10 µM: RXF 393, single dose 10 μM, read-out: percent cell growth promotion
MOLT-4 = experiment: NCI 60 cell panel SRB screen; format: cell-based; conditions: Homo sapiens; for GI50 / IC (TGI) / CC50: MOLT-4, 5 log dose; for CC50: 48 h, read-out: LC50 (the source's name); for activity at 10 µM: MOLT-4, single dose 10 μM, read-out: percent cell growth promotion
T-47D = experiment: NCI 60 cell panel SRB screen; format: cell-based; conditions: Homo sapiens, T47D; for IC (TGI): read-out: TGI; for activity at 10 µM: read-out: percent cell growth promotion; for CC50: T-47D, 5 log dose, 48 h, read-out: LC50 (the source's name)
HCC-2998 = experiment: NCI 60 cell panel SRB screen; format: cell-based; conditions: Homo sapiens; for GI50 / IC (TGI) / LC50 (50% lethal concentration): HCC-2998, 5 log dose; for LC50 (50% lethal concentration): 48 h; for activity at 10 µM: HCC-2998, single dose 10 μM, read-out: percent cell growth promotion
full NCI 60 cell panel = experiment: NCI 60 cell panel SRB screen, whole panel; format: cell-based, human; conditions: Homo sapiens, 60 cell; for activity at 10 µM: mean over the panel, single dose 10 μM, read-out: Mean percent cell growth promotion; for inhibition at 10 µM: single dose 10 µM
OVCAR-3 = experiment: NCI 60 cell panel SRB screen; format: cell-based; conditions: Homo sapiens; for GI50 / IC (TGI) / CC50: OVCAR-3, 5 log dose; for CC50: 48 h, read-out: LC50 (the source's name); for activity at 10 µM: OVCAR-3, single dose 10 μM, read-out: percent cell growth promotion
SNB-19 = experiment: NCI 60 cell panel SRB screen; format: cell-based; conditions: Homo sapiens; for GI50 / IC (TGI) / CC50: SNB-19, 5 log dose; for CC50: 48 h, read-out: LC50 (the source's name); for activity at 10 µM: SNB-19, single dose 10 μM, read-out: percent cell growth promotion
TK-10 = experiment: NCI 60 cell panel SRB screen; format: cell-based, human; conditions: Homo sapiens; TK-10, single dose 10 μM; read-out: percent cell growth promotion
NCI-H226 = experiment: NCI 60 cell panel SRB screen; format: cell-based; conditions: Homo sapiens; for GI50 / IC (TGI) / CC50: NCI-H226, 5 log dose; for CC50: 48 h, read-out: LC50 (the source's name); for activity at 10 µM: NCI-H226, single dose 10 μM, read-out: percent cell growth promotion
MDA-MB-435 = experiment: NCI 60 cell panel SRB screen; format: cell-based; conditions: Homo sapiens; for GI50: MDA-MB-435; for IC (TGI): MDA-MB-435, read-out: TGI; for activity at 10 µM: MDA-MB-435, read-out: percent cell growth promotion; for CC50: MDA-MB-435, 5 log dose, 48 h, read-out: LC50 (the source's name)
HCT-15 = experiment: NCI 60 cell panel SRB screen; format: cell-based; conditions: Homo sapiens; for GI50 / IC (TGI) / CC50: HCT-15, 5 log dose; for CC50: 48 h, read-out: LC50 (the source's name); for activity at 10 µM: HCT-15, single dose 10 μM, read-out: percent cell growth promotion
A549/ATCC = experiment: NCI 60 cell panel SRB screen; format: cell-based; conditions: Homo sapiens; for GI50 / IC (TGI) / LC50 (concentration killing 50% of cells): 5 log dose; for LC50 (concentration killing 50% of cells): 48 h; for activity at 10 µM: single dose 10 μM, read-out: percent cell growth promotion
NCI-H522 = experiment: NCI 60 cell panel SRB screen; format: cell-based; conditions: Homo sapiens; for GI50 / IC (TGI) / CC50: NCI-H522, 5 log dose; for CC50: 48 h, read-out: LC50 (the source's name); for activity at 10 µM: NCI-H522, single dose 10 μM, read-out: percent cell growth promotion
OVCAR-4 = experiment: NCI 60 cell panel SRB screen; format: cell-based; conditions: Homo sapiens; for GI50 / IC (TGI) / CC50: OVCAR-4, 5 log dose; for CC50: 48 h, read-out: LC50 (the source's name); for activity at 10 µM: OVCAR-4, single dose 10 μM, read-out: percent cell growth promotion
K-562 = experiment: NCI 60 cell panel SRB screen; format: cell-based; conditions: Homo sapiens, K562; for GI50 / IC (TGI) / CC50: K-562, 5 log dose; for CC50: 48 h, read-out: LC50 (the source's name); for activity at 10 µM: K-562, single dose 10 μM, read-out: percent cell growth promotion
[1] = read-out: cell growth inhibition against various cell lines

Molecule COc1cccc(NCc2nnc(Nc3ccc(Cl)cc3)c3ccccc23)c1 [Compound 16d, N-(4-Chlorophenyl)-4-((3-methoxyphenylamino)methyl)phthalazin-1-amine] has a GI50 (SNB-75) of 0.29 µM, an IC (TGI) (SNB-75) of 5.27 µM and an LC50 (concentration killing 50% of cells) (SNB-75) of 23.1 µM. It also gave an activity at 10 µM (SNB-75) of -6.06%, an activity at 10 µM (CAKI-1) of 9.01% and a GI50 (OVCAR-5) of 3.38 µM. The IC (TGI) (OVCAR-5) was 11.8 µM, the CC50 (OVCAR-5) was over 25 µM and the activity at 10 µM (OVCAR-5) was 8.44%. It also gave a GI50 (RXF 393) of 2.16 µM, an IC (TGI) (RXF 393) of 6.11 µM and a CC50 (RXF 393) of 15.9 µM. The activity at 10 µM (RXF 393) was -11.6%, the GI50 (MOLT-4) was 1.1 µM and the IC (TGI) (MOLT-4) was 7.57 µM. For the same molecule, the CC50 (MOLT-4) was over 25 µM, the activity at 10 µM (MOLT-4) was -27.2% and the GI50 (T-47D) was 0.64 µM. For the same molecule, the IC (TGI) (T-47D) was 6.56 µM, the activity at 10 µM (T-47D) was -8.49% and the CC50 (T-47D) was over 25 µM. It also gave a GI50 (HCC-2998) of 3.44 µM, an IC (TGI) (HCC-2998) of 8.79 µM and an LC50 (50% lethal concentration) (HCC-2998) of 22.5 µM. For the same molecule, the activity at 10 µM (HCC-2998) was 2.79%, the activity at 10 µM (full NCI 60 cell panel) was -16% and the inhibition at 10 µM (full NCI 60 cell panel; full panel, read-out: mean growth inhibition) was 116%. For the same molecule, the inhibition at 10 µM (full NCI 60 cell panel; [1]) was over 90%, the GI50 (OVCAR-3) was 1.64 µM and the IC (TGI) (OVCAR-3) was 10 µM. For the same molecule, the CC50 (OVCAR-3) was over 25 µM, the activity at 10 µM (OVCAR-3) was -53.6% and the GI50 (SNB-19) was 3.5 µM. The IC (TGI) (SNB-19) was 13 µM, the CC50 (SNB-19) was over 25 µM and the activity at 10 µM (SNB-19) was 17.8%. For the same molecule, the activity at 10 µM (TK-10) was -40.9%, the GI50 (NCI-H226) was 0.95 µM and the IC (TGI) (NCI-H226) was 6.82 µM. It also gave a CC50 (NCI-H226) of over 25 µM, an activity at 10 µM (NCI-H226) of -22.9% and a GI50 (MDA-MB-435) of 0.73 µM. The IC (TGI) (MDA-MB-435) was 4.38 µM, the activity at 10 µM (MDA-MB-435) was -10.3% and the CC50 (MDA-MB-435) was 12 µM. For the same molecule, the GI50 (HCT-15) was 1.78 µM, the IC (TGI) (HCT-15) was 7.56 µM and the CC50 (HCT-15) was over 25 µM. It also gave an activity at 10 µM (HCT-15) of -18.1%, a GI50 (A549/ATCC) of 1.93 µM and an IC (TGI) (A549/ATCC) of 9.42 µM. The LC50 (concentration killing 50% of cells) (A549/ATCC) was over 25 µM, the activity at 10 µM (A549/ATCC) was 2.56% and the GI50 (NCI-H522) was 0.32 µM. The IC (TGI) (NCI-H522) was 3.31 µM, the CC50 (NCI-H522) was 13.1 µM and the activity at 10 µM (NCI-H522) was -43.8%. For the same molecule, the GI50 (OVCAR-4) was 1.33 µM, the IC (TGI) (OVCAR-4) was 17.6 µM and the CC50 (OVCAR-4) was over 25 µM. It also gave an activity at 10 µM (OVCAR-4) of 17.2%, a GI50 (K-562) of 1.49 µM and an IC (TGI) (K-562) of 13.1 µM. The CC50 (K-562) was over 25 µM and the activity at 10 µM (K-562) was 2.2%.
Clc1ccc(Nc2nnc(COc3ccccc3)c3ccccc23)cc1 [Compound 17a, N-(4-Chlorophenyl)-4-(phenoxymethyl)phthalazin-1-amine] showed a GI50 (SNB-75) of 0.49 µM, an IC (TGI) (SNB-75) of 6.65 µM and an LC50 (concentration killing 50% of cells) (SNB-75) of over 25 µM. The activity at 10 µM (SNB-75) was 13.1%, the activity at 10 µM (CAKI-1) was 15.4% and the GI50 (OVCAR-5) was 3.88 µM. It also gave an IC (TGI) (OVCAR-5) of 15.4 µM, a CC50 (OVCAR-5) of over 25 µM and an activity at 10 µM (OVCAR-5) of 23.1%. For the same molecule, the GI50 (RXF 393) was 1.01 µM, the IC (TGI) (RXF 393) was 4.97 µM and the CC50 (RXF 393) was 14.4 µM. The activity at 10 µM (RXF 393) was -5.93%, the GI50 (MOLT-4) was 1.06 µM and the IC (TGI) (MOLT-4) was 6.7 µM. It also gave a CC50 (MOLT-4) of over 25 µM, an activity at 10 µM (MOLT-4) of -32.6% and a GI50 (T-47D) of 0.88 µM. For the same molecule, the IC (TGI) (T-47D) was 8.44 µM, the activity at 10 µM (T-47D) was -5.86% and the CC50 (T-47D) was over 25 µM. It also gave a GI50 (HCC-2998) of 3.81 µM, an IC (TGI) (HCC-2998) of 8.36 µM and an LC50 (50% lethal concentration) (HCC-2998) of 18.3 µM. It also gave an activity at 10 µM (HCC-2998) of 8.55%, an activity at 10 µM (full NCI 60 cell panel) of -4.07% and an inhibition at 10 µM (full NCI 60 cell panel; [1]) of over 90%. For the same molecule, the GI50 (OVCAR-3) was 2.87 µM, the IC (TGI) (OVCAR-3) was 9.8 µM and the CC50 (OVCAR-3) was over 25 µM. The activity at 10 µM (OVCAR-3) was -35.1%, the GI50 (SNB-19) was 3.2 µM and the IC (TGI) (SNB-19) was 12 µM. For the same molecule, the CC50 (SNB-19) was over 25 µM, the activity at 10 µM (SNB-19) was 21.9% and the activity at 10 µM (TK-10) was -17.5%. The GI50 (NCI-H226) was 1.56 µM, the IC (TGI) (NCI-H226) was 6.58 µM and the CC50 (NCI-H226) was 21.7 µM. It also gave an activity at 10 µM (NCI-H226) of 1.78%, a GI50 (MDA-MB-435) of 1.01 µM and an IC (TGI) (MDA-MB-435) of 5.31 µM. For the same molecule, the activity at 10 µM (MDA-MB-435) was -3.33%, the CC50 (MDA-MB-435) was 16.2 µM and the GI50 (HCT-15) was 2.05 µM. The IC (TGI) (HCT-15) was 6.75 µM, the CC50 (HCT-15) was 19.7 µM and the activity at 10 µM (HCT-15) was 4.45%. The GI50 (A549/ATCC) was 2.87 µM, the IC (TGI) (A549/ATCC) was 12.3 µM and the LC50 (concentration killing 50% of cells) (A549/ATCC) was over 25 µM. The activity at 10 µM (A549/ATCC) was 4.64%, the GI50 (NCI-H522) was 0.35 µM and the IC (TGI) (NCI-H522) was 4.04 µM. For the same molecule, the CC50 (NCI-H522) was 16.7 µM, the activity at 10 µM (NCI-H522) was -17.4% and the GI50 (OVCAR-4) was 2.09 µM. It also gave an IC (TGI) (OVCAR-4) of over 25 µM, a CC50 (OVCAR-4) of over 25 µM and an activity at 10 µM (OVCAR-4) of 18.1%. It also gave a GI50 (K-562) of 1.85 µM, an IC (TGI) (K-562) of 11.9 µM and a CC50 (K-562) of over 25 µM. For the same molecule, the activity at 10 µM (K-562) was 2.77%.
